Source: US8703815B2, “Small molecules that covalently modify transthyretin” (The Scripps Research Institute, priority 2009, dated 2014)
Like-named read-outs stand apart in the source and are kept apart here.

Legend:
K15A-TTR [1] = biological target: T1, K15A-TTR (Homo sapiens, UniProt P02766, K35A); test: RP-HPLC analysis of reaction with K15A-TTR homotetramer; format: binding
T1 construct: composed of 127-residue β-sheet-rich subunits; made in house
Excerpt: A strictly analogous study performed with the K15A homotetrameric TTR mutant confirmed that K15 was essential for the observed chemoselective reaction between TTR and Compounds […] (FIG. 1A, bottom trace). […] However, it is important to note that Compounds 1-3 were only slightly less chemoselective (<5% reaction with K15A).
The ability of compounds A1 and A2, auxochromic analogs of previously discussed stilbenes [Klabunde et al., Nat. Struct. Biol. 2000, 7, 312-321; Connelly et al., Curr. Opin. Struc. Biol. 2010, 20, 54-62; Johnson et al., J. Med. Chem. 2008, 51, 6348-6358; Choi et al., J. Am. Chem. Soc. 2010, 132, 1359-1370; Choi et al., Nat. Chem. Biol. 2010, 6, 133-139; and Baures et al., Bioorg. Med. Chem. 1998, 6, 1389-1401] to form a chemoselective amide bond with the K15 residue of TTR was assessed by reverse-phase-HPLC and liquid chromatography-mass spectrometry analysis. […] The binding of the covalent modifier A2 to K15A-TTR (in the absence of amide bond conjugation) was confirmed by incubating A2 with K15A-TTR in phosphate buffer (pH 7) followed by K15A immunoisolation using a Sepharose® resin-conjugated anti-TTR polyclonal antibody [Purkey et al., Proc. Natl. Acad. Sci. U.S.A. 2001, 98, 5566-5571].
Recombinant WT-TTR was expressed as described previously [Lashuel et al., Biochemistry 38:13560-13573 (1999)]. For analysis of test compounds with TTR, each compound (1.5 μL in DMSO, 1.44 mM) was added to 300 μL of WT-TTR or K15A mutant TTR (3.6 μM, 10 mM sodium phosphate, 100 mM KCl, 1 mM EDTA, pH 7.0). The samples were vortexed, and incubated for 18 hours at 25° C. Reverse phase high performance liquid chromatography (RP-HPLC) was performed on a Water 600 E multi-solvent delivery system, using a Waters 486 tunable absorbance detector, a 717 autosampler, and a ThermoHypersil Keystone Betabasic-18 column μ150 Å pore size, 3 μm particle size, and mobile phase A; 0.1% TFA in 95% H2O+5% CH3CN and mobile phase B, 0.1% TFA in 95% CH3CN+5% H2O). Linear gradients were run from 100:0 to 0:100 A:B for 27 minutes.

WT-TTR [2] = biological target: T2, WT-TTR (Homo sapiens, UniProt P02766); test: Fluorimetric assay with recombinant WT-TTR; format: binding
T2 construct: composed of 127-residue β-sheet-rich subunits; made in house; host or cells: E. coli
Method: WT-TTR was expressed in an E. coli expression system and purified as described previously. […] The samples were vortexed, and incubated for 18 h at 25° C. […] The excitation slit was set at 5 nm and the emission slit was set at […]. The samples were excited at 328 nm and the emission spectra were collected from 350 to 550 nm. WT-TTR was expressed and purified from an E. coli expression system as described previously. [Lashuel et al., Biochemistry 1999, 38:13560]. […] The samples were vortexed, and incubated for 18 hours at 25° C. […] The excitation slits was set at 5 nm and the emission slits was set at […]. The samples were excited at 328 nm and the emission spectra were collected from 330 to 550 nm (FIG. 4). The time-dependent fluorescence changes were monitored in similar manner (FIG. 5).

K15A-TTR [3] = biological target: T1, K15A-TTR; test: Fluorimetric assay with recombinant K15A-TTR; format: binding; conditions: 24 hour incubation
Method: [The source words this procedure for another variant and says it was used here with some conditions changed.] The excitation spectra are shown with dotted traces (λmax=328 nm), and emission spectra are adjacently (λmax=384 nm). Very low fluorescence resulted from 328 nm excitation of stilbene Compounds 4 or 2 alone in buffer (FIGS. 4A and 4B; traces substantially on the X-axis).
WT-TTR was expressed in an E. coli expression system and purified as described previously. [Lashuel et al., Biochemistry 1999, 38, 13560-13573] The covalent TTR modifiers (A1 or A2) or the non-covalent TTR ligand B2 (5 μL of a 1.44 mM solution in DMSO, final concentration: 7.2 μM) were added to 1 mL of a solution of WT-TTR homotetramer (0.2 mg/mL, 3.6 μM) in 10 mM phosphate, 100 mM KCl and 1 mM EDTA (pH 7.0 phosphate buffer) in a 2 mL Eppendorf tube. The samples were vortexed, and incubated for 18 h at 25° C. The fluorescence changes were monitored using a Varian Cary 50 spectrofluorometer at 20° C. in a 1 cm path length quartz cell. The excitation slit was set at 5 nm and the emission slit was set at […]. The samples were excited at 328 nm and the emission spectra were collected from 350 to 550 nm.
WT-TTR was expressed and purified from an E. coli expression system as described previously. [Lashuel et al., Biochemistry 1999, 38:13560]. The covalent modifiers (Compounds 4 or 2) or the non-covalent TTR ligand Compound B2 (5 μL of a 1.44 mM solution in DMSO) were added to 1 mL of a solution of WT-TTR (0.2 mg/mL, 3.6 μM) in 10 mM phosphate, 100 mM KCl and 1 mM EDTA (pH 7.0) in a 2 mL Eppendorf tube. The samples were vortexed, and incubated for 18 hours at 25° C. The fluorescence changes were monitored using a Varian Cary 50 spectrofluorometer at 20° C. in a 1 cm path length quartz cell. The excitation slits was set at 5 nm and the emission slits was set at […]. The samples were excited at 328 nm and the emission spectra were collected from 330 to 550 nm (FIG. 4). The time-dependent fluorescence changes were monitored in similar manner (FIG. 5).

WT-TTR [4] = biological target: T2, WT-TTR; test: Acid-mediated WT-TTR fibril formation assay (turbidity at 400 nm); format: biochemical; conditions: for IC50: % fibril formation after 72 hours, read-out: IC50 (apparent), inhibition of WT-TTR amyloidogenesis; for % Fibril Formation 7.2 μM (WT-TTR): compound 7.2 μM; for % Fibril Formation 7.2 μM (WT-TTR) / % Fibril Formation […] (WT-TTR): pH 4.4, 72 hours, 37° C.; for % Fibril Formation […] (WT-TTR): compound […]
Method: The mixtures were vortexed and incubated (maintained) for 18 hours at 25° C.

[5] = biological target: T3, TTR in human blood plasma (Homo sapiens, UniProt P02766); test: Modification of TTR in human blood plasma (immunocapture, RP-HPLC); format: binding; conditions: compound 10.8 μM, 24 hours, 37° C.; maximum 50%
T3 construct: RP-HPLC analysis of TTR captured from human plasma; from tissue; host or cells: human blood plasma
Method: Compounds 1-4 (10.8 μM) were incubated for 24 hours at 37° C. with human plasma, wherein the TTR concentration is 3.6-5.4 μM.
Furthermore, compound A2 was evaluated to determine its ability to bind selectively to and then react chemoselectively with TTR over the 4000+ other proteins in human blood plasma. Compound A2 (10.8 μM) was incubated with human blood plasma (TTR concentration is 3.6-5.4 μM) for 24 hours at 37° C. before immunoisolating human TTR using a Sepharose® resin-conjugated anti-TTR polyclonal antibody [Purkey et al., Proc. Natl. Acad. Sci. U.S.A. 2001, 98, 5566-5571].
The modification ratio of TTR by kinetic stabilizers in human plasma was evaluated as described [Purkey et al., Proc. Natl. Acad. Sci. U.S.A. 98:5566-5571 (2001)] with minor modifications. Briefly, compounds (7.5 μL of 1.44 mM solution in DMSO) were added to 1 mL of human plasma and incubated at 37° C. for 24 hours on a rocker (30 rpm). A 1:1 (v/v) slurry of unfunctionalized Sepharose® resin in 10 mM Tris, 140 mM NaCl, pH 8.0 (TSA) was added and the solutions were incubated for 1 hour at 4° C. on a rocker plate, followed by brief centrifugation.
Two 400 μL aliquots of the supernatants were added to 300 μL of 1:1 (v:v) slurry of anti-TTR antibody-conjugated Sepharose® resin in TSA. The solutions were gently rocked at 4° C. for 20 minutes (30 rpm), centrifuged, and supernatants were removed. The resin was washed by shaking for 1 minute in 1 mL of TSA solution containing 0.05% saponin (three times) and then 1 mL of TSA solution (twice). The TTR and bound test compound were dissociated from the resin by adding 155 μL of triethylamine (100 mM, pH 11.5) and vortexing for 1 minute. After centrifugation, 135 μL of solution containing test compound and TTR was analyzed by RP-HPLC as described above except that the linear gradients were run from 100:0 to 0:100 A:B for 45 minutes.

V30M-TTR = biological target: T4, V30M-TTR (Homo sapiens, UniProt P02766, V50M); test: Acid-mediated V30M-TTR fibril formation assay (turbidity at 400 nm); format: biochemical; conditions: pH 4.4, 72 hours, 37° C.; for % Fibril Formation 7.2 μM (V30M-TTR): compound 7.2 μM; for % Fibril Formation […] (V30M-TTR): compound […]
T4 construct: composed of 127-residue β-sheet-rich subunits; made in house
Method: Compounds (5 μL of 1.44 mM solution in DMSO) were added to 495 μL of TTR (7.2 μM, in 10 mM sodium phosphate, 100 mM KCl, 1 mM EDTA, pH 7.0). The mixtures were vortexed and incubated (maintained) for 18 hours at 25° C. […] The solutions were vortexed to evenly distribute any precipitate, and turbidity was measured at 400 nm using a Hewlett Packard model 8453 UV-VIS Spectrophotometer.

Structure (SMILES): Cc1cc(/C=C/c2cc(C(=O)Oc3ccc(F)cc3)cc(N(C)C)c2)cc(C)c1O [Compound A1, (E)-4-fluorophenyl 3-(dimethylamino)-5-(4-hydroxy-3,5-dimethylstyryl)benzoate]
- reaction with K15A-TTR (in words) (K15A-TTR [1]): no conjugation
- fluorescence after incubation with WT-TTR (in words) (WT-TTR [2]; phosphate buffer pH 7, 18 hours): bright blue fluorescence

Structure (SMILES): CCCNC(=O)c1cccc(/C=C/c2cc(C)c(O)c(C)c2)c1 [Compound B1, (E)-3-(4-hydroxy-3,5-dimethylstyryl)-N-propylbenzamide]
- increase in fluorescence intensity upon binding to K15A-TTR (K15A-TTR [3]): about 190 fold
- time for binding to WT-TTR (WT-TTR [2]): ≤ 1 min
- increase in fluorescence intensity with WT-TTR vs compound alone in buffer (WT-TTR [2]; WT-TTR […], compound 7.2 μM, 24 hours): about 400 fold
- increase in fluorescence intensity with WT-TTR within 1 minute vs compound alone in buffer (WT-TTR [2]; time-dependent emission spectra): about 360 fold

Structure (SMILES): Cc1cc(/C=C/c2cccc(C(=O)Oc3ccccc3[N+](=O)[O-])c2)cc(C)c1O [Compound 3, (E)-2-nitrophenyl 3-(4-hydroxy-3,5-dimethylstyryl)benzoate]
- IC50 (WT-TTR [4]; WT-TTR 3.6 μM): 1960 to 2260 nM
- % Fibril Formation 7.2 μM (WT-TTR) (WT-TTR [4]; WT-TTR […]): 4%
- % Fibril Formation […] (WT-TTR) (WT-TTR [4]; WT-TTR […]): 21%
- % Modification of TTR subunits in Human Blood Plasma [5]: 49% (±0.7%)
- % Fibril Formation 7.2 μM (V30M-TTR) (V30M-TTR): 3%
- % Fibril Formation […] (V30M-TTR) (V30M-TTR): 33%

Structure (SMILES): Cc1cc(/C=C/c2ccc(C(=O)Oc3ccccc3[N+](=O)[O-])cc2)cc(C)c1O [Compound 6]
- reaction with K15A-TTR (in words) (K15A-TTR [1]): more non-chemoselective conjugation

Structure (SMILES): O=C(Sc1ccccc1)c1cccc(/C=C/c2cc(Br)c(O)c(Br)c2)c1 [Compound 1, (E)-S-phenyl 3-(3,5-dibromo-4-hydroxystyryl)benzothioate]
- IC50 (WT-TTR [4]; WT-TTR 3.6 μM): 1960 to 2260 nM
- IC50 (WT-TTR [4]; WT-TTR […]): 2000 nM
- % Fibril Formation 7.2 μM (WT-TTR) (WT-TTR [4]; WT-TTR […]): 2%
- % Fibril Formation […] (WT-TTR) (WT-TTR [4]; WT-TTR […]): 12%
- % Modification of TTR subunits in Human Blood Plasma [5]: 36% (±0.4%)
- % Fibril Formation 7.2 μM (V30M-TTR) (V30M-TTR): 3%
- % Fibril Formation […] (V30M-TTR) (V30M-TTR): 17%
